Measured values taken from US20200206233A1 (INTEGRAL BIOSCIENCES PRIVATE LIMITED, priority 2018, published 2020).

target: T1, IDH1 mutant (R132H) (Homo sapiens, UniProt O75874, R132H); experiment: Mutant IDH1-R132H Fluorescence Assay (Resazurin based); assay type: biochemical; details: 10 nM IDH1 R132H, 4 mM α-ketoglutarate, NADPH, 1.5 h at room temperature
T1 construct: purchased BPS Bioscience 71099-2
Experimental: IC50 values of compounds against IDH1 mutant (R132H) was determined by Resazurin based Fluorescence assay. Assays were performed in Buffer (25 mM Tris HCl, 150 mM NaCl, 10 mM MgCl2, 0.03% BSA, 2 mM 1-mercaptoethanol) where total reaction volume was 12.5 μL in low-volume 384-well plates (Cat #4511, Corning). Serially diluted compounds (3-fold) were incubated with cocktail of α-ketoglutarate (4 mM; Cat #75892-25G, Sigma), NADPH ([…]; Cat # N1630-100MG, Sigma) and buffer for 5 min, following IDH1 R132H mutant (10 nM; Cat #71099-2, BPS Bioscience) was added and incubated in dark at room temperature for 1.5 h. After 1.5 h, 6.25 μL detection solution containing Resazurin ([…]; (Cat #62758-13-8, Sigma) and Diaphorase (40 ug/ml; Cat # D2197-300UN, Sigma) in buffer was added and incubated for 15 min. Readings were taken in a Synergy Neo Plate reader (BioTek, Winooski) at single excitation of 540 nm and emission at 590 nm respectively.
The % (percent) activity of test samples was calculated as (Sample−Min)×100/(Max−Min). [Max: DMSO control, complete reaction with enzyme with DMSO and Min: No enzyme with DMSO]. Percent inhibition (100−% activity) was fitted to the “four-parameter logistic model” in XLfit for determination of IC50 values.

T1 sequence (O75874 whole entry R132H): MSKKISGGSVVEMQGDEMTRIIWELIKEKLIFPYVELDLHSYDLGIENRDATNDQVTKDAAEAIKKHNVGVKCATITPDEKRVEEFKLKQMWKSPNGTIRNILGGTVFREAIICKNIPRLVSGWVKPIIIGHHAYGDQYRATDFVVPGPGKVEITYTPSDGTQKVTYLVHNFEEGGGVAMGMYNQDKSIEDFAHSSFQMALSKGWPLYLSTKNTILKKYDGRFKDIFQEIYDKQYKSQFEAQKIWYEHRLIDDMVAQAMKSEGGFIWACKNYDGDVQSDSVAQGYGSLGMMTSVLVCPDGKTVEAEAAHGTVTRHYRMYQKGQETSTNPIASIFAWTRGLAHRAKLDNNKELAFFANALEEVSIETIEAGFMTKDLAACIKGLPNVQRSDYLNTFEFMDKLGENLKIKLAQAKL

Compound	IC50 [µM]
CC[C@H]1COC(=O)N1c1nc(C)nc(N[C@@H](C)c2ccc(Oc3ccccc3)nc2)n1 [Compound 1.77, (S)-4-ethyl-3-(4-methyl-6-((S)-1-(6-phenoxypyridin-3-yl)ethylamino)-1,3,5-triazin-2-yl)oxazolidin-2-one]	5.95
CC[C@H]1COC(=O)N1c1nc(C)nc(N[C@H](C)c2ccc(Oc3ccccc3)cn2)n1 [Compound 1.76, (S)-4-ethyl-3-(4-methyl-6-((R)-1-(5-phenoxypyridin-2-yl)ethylamino)-1,3,5-triazin-2-yl)oxazolidin-2-one]	> 23.3
CC[C@H]1COC(=O)N1c1nc(C)nc(N[C@@H](C)c2ccc(OCc3ccccn3)cc2)n1 [Compound 1.62, (S)-4-ethyl-3-(4-methyl-6-((S)-1-(4-(pyridin-2-ylmethoxy)phenyl)ethylamino)-1,3,5-triazin-2-yl)oxazolidin-2-one]	3.29
CC[C@H]1COC(=O)N1c1nc(C)nc(N[C@@H](C)c2ccc(Oc3ccc(Cl)cc3)nc2OC)n1 [Compound 1.87, (S)-3-(4-((S)-1-(6-(4-chlorophenoxy)-2-methoxypyridin-3-yl)ethylamino)-6-methyl-1,3,5-triazin-2-yl)-4-ethyloxazolidin-2-one]	8.82
CC[C@H]1COC(=O)N1c1nc(C)nc(N[C@@H](C)c2cc3cc(Cl)cnc3[nH]c2=O)n1 [Compound 1.49, (S)-3-(4-((S)-1-(6-chloro-2-oxo-1,2-dihydro-1,8-naphthyridin-3-yl)ethylamino)-6-methyl-1,3,5-triazin-2-yl)-4-ethyloxazolidin-2-one]	> 30
CC[C@H]1COC(=O)N1c1nc(C)nc(N[C@H](C)c2cc3cc(C)ccc3[nH]c2=O)n1 [Compound 1.109, (S)-4-ethyl-3-(4-methyl-6-((R)-1-(6-methyl-2-oxo-1,2-dihydroquinolin-3-yl)ethylamino)-1,3,5-triazin-2-yl)oxazolidin-2-one]	> 30
CC[C@H]1COC(=O)N1c1nc(C)nc(N[C@@H](C)c2cc(C)c(-c3ccnc(C(F)(F)F)c3)cn2)n1 [Compound 1.54, (S)-4-ethyl-3-(4-methyl-6-((S)-1-(4-methyl-2′-(trifluoromethyl)-3,4′-bipyridin-6-yl)ethylamino)-1,3,5-triazin-2-yl)oxazolidin-2-one]	1.21
CC[C@H]1COC(=O)N1c1nc(C)nc(N[C@@H](C)c2cc3cc(-c4ccc(Cl)cc4)ccc3[nH]c2=O)n1 [Compound 1.106, (S)-3-(4-((S)-1-(6-(4-chlorophenyl)-2-oxo-1,2-dihydroquinolin-3-yl)ethylamino)-6-methyl-1,3,5-triazin-2-yl)-4-ethyloxazolidin-2-one]	> 30
CC[C@H]1COC(=O)N1c1nc(C)nc(N[C@H](C)c2cnc3ccc(Cl)nn23)n1 [Compound 1.70, (S)-3-(4-((R)-1-(6-chloroimidazo[1,2-b]pyridazin-3-yl)ethylamino)-6-methyl-1,3,5-triazin-2-yl)-4-ethyloxazolidin-2-one]	> 30
CC[C@H]1COC(=O)N1c1nc(C)nc(N[C@H](C)c2ccc(Oc3ccc4ccccc4c3)cc2)n1 [Compound 1.93, (S)-4-ethyl-3-(4-methyl-6-((R)-1-(4-(naphthalen-2-yloxy)phenyl)ethylamino)-1,3,5-triazin-2-yl)oxazolidin-2-one]	> 30
CC[C@H]1COC(=O)N1c1nc(C)nc(N[C@H](C)c2cc3cc(-c4ccc(Cl)cc4)ccc3[nH]c2=O)n1 [Compound 1.107, (S)-3-(4-((R)-1-(6-(4-chlorophenyl)-2-oxo-1,2-dihydroquinolin-3-yl)ethylamino)-6-methyl-1,3,5-triazin-2-yl)-4-ethyloxazolidin-2-one]	> 30
CC[C@H]1COC(=O)N1c1nc(C)nc(N[C@H](C)c2ccc(Oc3cccnc3C(F)(F)F)cc2)n1 [Compound 1.80, (S)-4-ethyl-3-(4-methyl-6-((R)-1-(4-(2-(trifluoromethyl)pyridin-3-yloxy)phenyl)ethylamino)-1,3,5-triazin-2-yl)oxazolidin-2-one]	10.2
CC[C@H]1COC(=O)N1c1nc(C)nc(N[C@@H](C)c2ccc(Oc3ccc(Cl)cc3)c(C)n2)n1 [Compound 1.96, (S)-3-(4-((S)-1-(5-(4-chlorophenoxy)-6-methylpyridin-2-yl)ethylamino)-6-methyl-1,3,5-triazin-2-yl)-4-ethyloxazolidin-2-one]	3.83
CC[C@H]1COC(=O)N1c1nc(C)nc(N[C@@H](C)c2cc3cc(OC)ccc3[nH]c2=O)n1 [Compound 1.55, (S)-4-ethyl-3-(4-((S)-1-(6-methoxy-2-oxo-1,2-dihydroquinolin-3-yl)ethylamino)-6-methyl-1,3,5-triazin-2-yl)oxazolidin-2-one]	1.25
CC[C@H]1COC(=O)N1c1nc(C)nc(N[C@H](C)c2ccc(Oc3ccc(F)cc3Br)cc2)n1 [Compound 1.79, (S)-3-(4-((R)-1-(4-(2-bromo-4-fluorophenoxy)phenyl)ethylamino)-6-methyl-1,3,5-triazin-2-yl)-4-ethyloxazolidin-2-one]	2.72
CC[C@H]1COC(=O)N1c1nc(C)nc(N[C@@H](C)c2ccc(Cc3ccccc3)cc2)n1 [Compound 1.95, (S)-3-(4-((S)-1-(4-benzylphenyl)ethylamino)-6-methyl-1,3,5-triazin-2-yl)-4-ethyloxazolidin-2-one]	2.64
CC[C@H]1COC(=O)N1c1nc(C)nc(NCc2cc3cc(Cl)ccc3[nH]c2=O)n1 [Compound 1.57, (S)-3-(4-((6-chloro-2-oxo-1,2-dihydroquinolin-3-yl)methylamino)-6-methyl-1,3,5-triazin-2-yl)-4-ethyloxazolidin-2-one]	2.07
Cc1nc(N[C@H](C)c2cc3cc(Cl)ccc3[nH]c2=O)nc(N2C(=O)OC[C@@H]2[C@H](C)F)n1 [Compound 1.60, (R)-3-(4-((R)-1-(6-chloro-2-oxo-1,2-dihydroquinolin-3-yl)ethylamino)-6-methyl-1,3,5-triazin-2-yl)-4-((S)-1-fluoroethyl)oxazolidin-2-one]	> 30
CC[C@H]1COC(=O)N1c1nc(C)nc(N[C@@H](C)c2cc3cc(C)ccc3[nH]c2=O)n1 [Compound 1.108, (S)-4-ethyl-3-(4-methyl-6-((S)-1-(6-methyl-2-oxo-1,2-dihydroquinolin-3-yl)ethylamino)-1,3,5-triazin-2-yl)oxazolidin-2-one]	1.27
CC[C@H]1COC(=O)N1c1nc(N[C@@H](C)c2ccc(Oc3ccccc3)cc2)nc(N(C)C)n1 [Compound 1.63, (S)-3-(4-(dimethylamino)-6-((S)-1-(4-phenoxyphenyl)ethylamino)-1,3,5-triazin-2-yl)-4-ethyloxazolidin-2-one]	2.4
CC[C@H]1COC(=O)N1c1nc(C)nc(N[C@H](C)c2cn3cc(Br)ccc3n2)n1 [Compound 1.48, (S)-3-(4-((R)-1-(6-bromoimidazo[1,2-a]pyridin-2-yl)ethylamino)-6-methyl-1,3,5-triazin-2-yl)-4-ethyloxazolidin-2-one]	> 30
CC[C@H]1COC(=O)N1c1nc(C)nc(N[C@@H](C)c2ccc(CN3CCN(C(C)=O)CC3)cc2)n1 [Compound 1.98, (S)-3-(4-((S)-1-(4-((4-acetylpiperazin-1-yl)methyl)phenyl)ethylamino)-6-methyl-1,3,5-triazin-2-yl)-4-ethyloxazolidin-2-one]	21.4
C[C@@H](Nc1ncnc(N2CCOC2=O)n1)c1ccc(Oc2ccccc2)cc1 [Compound 1.20]	> 30
CC[C@H]1COC(=O)N1c1nc(C)nc(N[C@H](C)c2ccc(Oc3ccc(Cl)cc3)c(C)n2)n1 [Compound 1.97, (S)-3-(4-((R)-1-(5-(4-chlorophenoxy)-6-methylpyridin-2-yl)ethylamino)-6-methyl-1,3,5-triazin-2-yl)-4-ethyloxazolidin-2-one]	> 30
CC[C@H]1COC(=O)N1c1nc(C)nc(N[C@@H](C)c2ccc3c(-c4ccccc4)c[nH]c3c2)n1 [Compound 1.100, (S)-4-ethyl-3-(4-methyl-6-((S)-1-(3-phenyl-1H-indol-6-yl)ethylamino)-1,3,5-triazin-2-yl)oxazolidin-2-one]	2.24
CC[C@H]1COC(=O)N1c1nc(C)nc(N[C@@H](C)c2cnc3ccc(Cl)nn23)n1 [Compound 1.69, (S)-3-(4-((S)-1-(6-chloroimidazo[1,2-b]pyridazin-3-yl)ethylamino)-6-methyl-1,3,5-triazin-2-yl)-4-ethyloxazolidin-2-one]	> 30
CC(C)[C@H]1COC(=O)N1c1ncnc(N[C@H](C)c2ccc(N3CCN(C)CC3)cn2)n1 [Compound 1.25, (S)-4-isopropyl-3-(4-((R)-1-(5-(4-methylpiperazin-1-yl)pyridin-2-yl)ethylamino)-1,3,5-triazin-2-yl)oxazolidin-2-one]	> 30
CC[C@H]1COC(=O)N1c1nc(C)nc(N[C@H](C)c2cc3cc(Cl)c(OC)cc3[nH]c2=O)n1 [Compound 1.43, (S)-3-(4-((R)-1-(6-chloro-7-methoxy-2-oxo-1,2-dihydroquinolin-3-yl)ethylamino)-6-methyl-1,3,5-triazin-2-yl)-4-ethyloxazolidin-2-one]	6.83
CC(C)[C@H]1COC(=O)N1c1ncnc(N[C@H](C)c2ccc(Oc3ccccc3)cc2)n1 [Compound 1.8, (S)-4-isopropyl-3-(4-((R)-1-(4-phenoxyphenyl)ethylamino)-1,3,5-triazin-2-yl)oxazolidin-2-one]	> 30
